The molecules below were run against T1, ER (Homo sapiens, UniProt P03372) (assay: ER degradation activity, in-cell western blot analysis in T47D cells). Conditions: 16 hours, Table A does not say which cell line (T47D or MCF7), read-out: Potency (DC50).
T1 construct: host or cells: T47D and MCF7 human breast cancer cells
T1 sequence (P03372 1-595): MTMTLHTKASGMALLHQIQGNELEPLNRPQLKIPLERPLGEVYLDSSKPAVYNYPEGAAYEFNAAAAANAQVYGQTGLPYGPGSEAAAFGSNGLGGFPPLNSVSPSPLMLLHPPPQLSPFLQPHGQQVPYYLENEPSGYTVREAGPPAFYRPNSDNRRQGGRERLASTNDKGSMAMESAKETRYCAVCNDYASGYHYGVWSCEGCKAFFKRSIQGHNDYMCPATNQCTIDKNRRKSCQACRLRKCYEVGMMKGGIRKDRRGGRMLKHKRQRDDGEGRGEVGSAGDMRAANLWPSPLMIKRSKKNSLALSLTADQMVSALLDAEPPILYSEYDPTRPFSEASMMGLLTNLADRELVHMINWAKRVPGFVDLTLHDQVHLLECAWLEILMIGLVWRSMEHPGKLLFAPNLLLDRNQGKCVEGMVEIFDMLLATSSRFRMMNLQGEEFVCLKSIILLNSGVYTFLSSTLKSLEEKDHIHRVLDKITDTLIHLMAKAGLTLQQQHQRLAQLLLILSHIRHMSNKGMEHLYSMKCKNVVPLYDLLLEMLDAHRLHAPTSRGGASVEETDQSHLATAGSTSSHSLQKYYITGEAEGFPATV
Type: cell-based
In short: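 In-cell western, T47D; compounds 16 h, 0.5% DMSO final; anti-rabbit-680/anti-mouse-800 secondaries, 1 h RT, dark; read on CLX imager. ER % vs untreated/DMSO wells (100%).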

DC50 [nM]	Structure (SMILES)
> 100	O=C1CCC(N2C(=O)c3cc4c(cc3C2=O)CN(C(=O)[C@H]2CC[C@@H](N3CC(Oc5ccc([C@H]6c7ccc(O)cc7CC[C@H]6c6ccccc6)cc5)C3)CC2)C4)C(=O)N1 (stereo partly drawn) [E 389, 2-(2,6-dioxopiperidin-3-yl)-6-((1R,4s)-4-(3-(4-((1S,2R)-6-hydroxy-2-phenyl-1,2,3,4-tetrahydronaphthalen-1-yl)phenoxy)azetidin-1-yl)cyclohexane-1-carbonyl)-6,7-dihydropyrrolo[3,4-f]isoindole-1,3(2H,5H)-dione]
10 to 100	O=C1CCC(N2C(=O)c3cc4c(cc3C2=O)CN(C(=O)[C@H]2CC[C@H](N3CC(Nc5ccc([C@H]6c7ccc(O)cc7CC[C@H]6c6ccccc6)cc5)C3)CC2)C4)C(=O)N1 (stereo partly drawn) [E 390, 2-(2,6-dioxopiperidin-3-yl)-6-((1S,4r)-4-(3-((4-((1S,2R)-6-hydroxy-2-phenyl-1,2,3,4-tetrahydronaphthalen-1-yl)phenyl)amino)azetidin-1-yl)cyclohexane-1-carbonyl)-6,7-dihydropyrrolo[3,4-f]isoindole-1,3(2H,5H)-dione]
> 100	O=C1CCC(N2C(=O)c3cc4c(cc3C2=O)CN(C(=O)[C@H]2CC[C@H](N3CC(Nc5ccc([C@H]6c7ccc(O)cc7CC[C@H]6c6ccccc6)cc5)C3)CC2)C4)C(=O)N1 (stereo partly drawn) [E 391, 2-(2,6-dioxopiperidin-3-yl)-6-((1S,4r)-4-(3-((4-((1S,2R)-6-hydroxy-2-phenyl-1,2,3,4-tetrahydronaphthalen-1-yl)phenyl)amino)azetidin-1-yl)cyclohexane-1-carbonyl)-6,7-dihydropyrrolo[3,4-f]isoindole-1,3(2H,5H)-dione]
10 to 100	C[C@@H]1Cc2c([nH]c3ccccc23)[C@@H](c2c(F)cc(C3CCN(C(=O)[C@H]4CC[C@@H](N5Cc6cc7c(cc6C5)C(=O)N(C5CCC(=O)NC5=O)C7=O)CC4)CC3)cc2F)N1CC(F)F (stereo partly drawn) [E 392, 6-((1S,4s)-4-(4-(4-((1R,3R)-2-(2,2-difluoroethyl)-3-methyl-2,3,4,9-tetrahydro-1H-pyrido[3,4-b]indol-1-yl)-3,5-difluorophenyl)piperidine-1-carbonyl)cyclohexyl)-2-(2,6-dioxopiperidin-3-yl)-6,7-dihydropyrrolo[3,4-f]isoindole-1,3(2H,5H)-dione]
< 10	C[C@@H]1Cc2c([nH]c3ccccc23)[C@@H](c2c(F)cc(C3CCN(C(=O)[C@H]4CC[C@H](N5Cc6cc7c(cc6C5)C(=O)N(C5CCC(=O)NC5=O)C7=O)CC4)CC3)cc2F)N1CC(F)F (stereo partly drawn) [E 393, 6-((1R,4r)-4-(4-(4-((1R,3R)-2-(2,2-difluoroethyl)-3-methyl-2,3,4,9-tetrahydro-1H-pyrido[3,4-b]indol-1-yl)-3,5-difluorophenyl)piperidine-1-carbonyl)cyclohexyl)-2-(2,6-dioxopiperidin-3-yl)-6,7-dihydropyrrolo[3,4-f]isoindole-1,3(2H,5H)-dione]
> 100	CN(c1ccc([C@H]2c3ccc(O)cc3CC[C@H]2c2ccccc2)cc1)C1CN([C@H]2CC[C@H](C(=O)N3Cc4cc5c(cc4C3)C(=O)N(C3CCC(=O)NC3=O)C5=O)CC2)C1 (stereo partly drawn) [E 394, 2-(2,6-dioxopiperidin-3-yl)-6-((1S,4r)-4-(3-((4-((1S,2R)-6-hydroxy-2-phenyl-1,2,3,4-tetrahydronaphthalen-1-yl)phenyl)(methyl)amino)azetidin-1-yl)cyclohexane-1-carbonyl)-6,7-dihydropyrrolo[3,4-f]isoindole-1,3(2H,5H)-dione]
> 100	CN(c1ccc([C@H]2c3ccc(O)cc3CC[C@H]2c2ccccc2)cc1)C1CN([C@H]2CC[C@H](C(=O)N3Cc4cc5c(cc4C3)C(=O)N(C3CCC(=O)NC3=O)C5=O)CC2)C1 (stereo partly drawn) [E 395, 2-(2,6-dioxopiperidin-3-yl)-6-((1R,4s)-4-(3-((4-((1S,2R)-6-hydroxy-2-phenyl-1,2,3,4-tetrahydronaphthalen-1-yl)phenyl)(methyl)amino)azetidin-1-yl)cyclohexane-1-carbonyl)-6,7-dihydropyrrolo[3,4-f]isoindole-1,3(2H,5H)-dione]

Reference: US20240190880A1 (THE REGENTS OF THE UNIVERSITY OF MICHIGAN, priority 2021, published 2024)
